Patent US6372297B1, “Wood preservative oxathiazines” (Uniroyal Chemical Company, Inc., priority 1993, dated 2002)

What was measured:
[1] = system: mixed spore suspension: Aureobasidium pullulans, Aspergillus amstelodami, Ceratocystis pilifera, Cladosporium sp., Penicillium sp., Sclerophomas entoxylina …; assay: Control of molds and sapstain fungi in mini-board test; set-up: key to Surface score of treated mini-boards, 3 week incubation, 1500 ppm / Surface score of treated mini-boards, 3 week incubation, 2500 ppm: 0: Free of fungal growth; 1: Traces of fungal growth; 2: Little fungal growth; 3: Moderate fungal growth; 4: Vigorous to maximum growth (all surfaces covered with fungal growth)
From the text: Representative compounds of this invention to be tested, were suspended in an aqueous solution containing 7.5% GENAPOL X 080™ (Hoechst-Celanese Corporation), and 20% propylene glycol monomethyl ether, to prepare the test solutions. […]
Deep frozen boards (300×50×10 mm) of freshly felled sapwood of Pinus sylvestrus (mini-boards) were thawed at room temperature. One half of each mini-board was immersed in a test solution for 20 seconds. The mini-boards were then sprayed with mixed spore suspension containing the following fungi:
Sclerophomas entoxylina, and
and stored in incubation boxes at 25° C. and at 100% relative humidity, for three weeks. For each compound tested, each concentration of test solution was applied to five different mini-boards.
The efficacy of the test compounds was determined by comparing the fungal growth on both the treated and untreated parts of the mini-boards.
The degree of infection was scored according to the following scale:
1=Traces of fungal growth
4=Vigorous to maximum growth (all surfaces covered with fungal growth)

[2] = system: mixed spore suspension of blue-stain fungus and molds; assay: Activity against blue-stain fungi and molds in a mold cabinet test (BS3900: Part G6); set-up: key: 0: No growth; Trace of growth of up to 1% coverage of the test inoculated area; 2: Growth covering between 1 and 10% of the inoculated test area; Growth covering between 10 and 30% of the inoculated test area; 4: Growth covering between 30 and 70% of the inoculated test area; 5: Growth covering more than 70t of the inoculated test area
Experimental: Using the methods described in BS3900: Part G6: 1989, British Standard Methods of test for paints, “Assessment of resistance to fungal growth”, representative compounds of this invention were tested for activity against blue-stain fungus and molds in a mold cabinet test. In brief, sticks of Scots pine (Pinus sylvestris) measuring 75×100×10 mm, were painted, allowed to dry, and sterilized by […] (1.2 mRad). […] The sticks were then with each solution. The inoculation consisted of dipping the sticks in a mixed spore suspension, then placing them in a mold chamber and incubating them for 12 weeks. The surfaces were evaluated according the following score system: 0: No growth 1: […] 2: […] 3: […] 4. […] 5. Growth covering more than 70% of the inoculated test area.

[3] = system: blue-stain fungi and molds; assay: Activity against blue-stain fungi and molds on a stick test on vermiculite (paint film); set-up: key to Surface score of wooden sticks treated with paint formulation, C. cladosporioides / Surface score of wooden sticks treated with paint formulation, P. purpurogenum / Surface score of wooden sticks treated with paint formulation, P. violacea / Surface score of wooden sticks treated with paint formulation, R rubra (y) / Surface score of wooden sticks treated with paint formulation, S. chartarum / Surface score of wooden sticks treated with paint formulation, A. versicolor / Surface score of wooden sticks treated with paint formulation, A. pullulans: 0: No growth; Trace of growth of up to 1% coverage of the test inoculated area; 2: Growth covering between 1 and 10% of the inoculated test area; Growth covering between 10 and 30% of the inoculated test area; 4: Growth covering between 30 and 70% of the inoculated test area; 5: Growth covering more than 70t of the inoculated test area; details: 12 weeks on vermiculite; for Surface score of wooden sticks treated with paint formulation, R rubra (y): R rubra (yeast)
Experimental: Beech sticks (73×18×2 mm) Fagus sylvatica were painted, allowed to dry, and sterilized by γ-radiation (1.2 mRad). […] The coated sticks prepared above were then dipped in a spore suspension of pure culture of each fungus. Seven sticks each were placed in autoclaved Petri dishes (200 mm in diameter, 30 mm in height) containing 300 ml of vermiculite and 120 ml of water, and incubated for 12 weeks. The surfaces of the sticks were then examined for the growth of fungus and were evaluated according to the following scoring system: 0: No growth 1: […] 2: […] 3: […] 4. […] 5. Growth covering more than 70t of the inoculated test area.

Row | Compound | Surface score of treated mini-boards, 3 week incubation, 1500 ppm [1] | Surface score of treated mini-boards, 6 week incubation, 1500 ppm [1] | Surface score of treated mini-boards, 3 week incubation, 2500 ppm [1] | Surface score of treated mini-boards, 6 week incubation, 2500 ppm [1] | Surface score in a paint formulation in a mold cabinet test, 6 weeks ([2]; 0.15% in water-based paint) | Surface score in a paint formulation in a mold cabinet test, 12 weeks ([2]; 0.15% in water-based paint) | Surface score in a paint formulation in a mold cabinet test, 6 weeks ([2]; 0.3% in water-based paint) | Surface score in a paint formulation in a mold cabinet test, 12 weeks ([2]; 0.3% in water-based paint) | Surface score of wooden sticks treated with paint formulation, A. pullulans ([3]; 0.15% a.i. in paint) | Surface score of wooden sticks treated with paint formulation, A. pullulans ([3]; 0.3% a.i. in paint) | Surface score of wooden sticks treated with paint formulation, A. versicolor ([3]; 0.15% a.i. in paint) | Surface score of wooden sticks treated with paint formulation, A. versicolor ([3]; 0.3% a.i. in paint) | Surface score of wooden sticks treated with paint formulation, C. cladosporioides ([3]; 0.15% a.i. in paint) | Surface score of wooden sticks treated with paint formulation, C. cladosporioides ([3]; 0.3% a.i. in paint) | Surface score of wooden sticks treated with paint formulation, P. purpurogenum ([3]; 0.15% a.i. in paint) | Surface score of wooden sticks treated with paint formulation, P. purpurogenum ([3]; 0.3% a.i. in paint) | Surface score of wooden sticks treated with paint formulation, P. violacea ([3]; 0.15% a.i. in paint) | Surface score of wooden sticks treated with paint formulation, P. violacea ([3]; 0.3% a.i. in paint) | Surface score of wooden sticks treated with paint formulation, R rubra (y) ([3]; 0.15% a.i. in paint) | Surface score of wooden sticks treated with paint formulation, R rubra (y) ([3]; 0.3% a.i. in paint) | further results
1 | Cc1ccsc1C1=NOCCS1(=O)=O [Compound 37] | 0 | 0.8 | 0 | 0.4 | 4.0 | 5.0 | 0 | 0 | 3 (Growth covering between 10 and 30% of the inoculated test area) | 2 (Growth covering between 1 and 10% of the inoculated test area) | 2 (Growth covering between 1 and 10% of the inoculated test area) | 1 (Trace of growth of up to 1% coverage of the test inoculated area) | 3 (Growth covering between 10 and 30% of the inoculated test area) | 0 | 3 (Growth covering between 10 and 30% of the inoculated test area) | 1 (Trace of growth of up to 1% coverage of the test inoculated area) | 5 (Growth covering more than 70t of the inoculated test area) | 4 (Growth covering between 30 and 70% of the inoculated test area) | 4 (Growth covering between 30 and 70% of the inoculated test area) | 3 (Growth covering between 10 and 30% of the inoculated test area) | Surface score of wooden sticks treated with paint formulation, S. chartarum ([3]; 0.15% a.i. in paint): 1 (Trace of growth of up to 1% coverage of the test inoculated area); Surface score of wooden sticks treated with paint formulation, S. chartarum ([3]; 0.3% a.i. in paint): 0; Surface score of wooden sticks treated with paint formulation, U. atrum ([3]; 0.15% a.i. in paint): 4 (Growth covering between 30 and 70% of the inoculated test area); Surface score of wooden sticks treated with paint formulation, U. atrum ([3]; 0.3% a.i. in paint): 3 (Growth covering between 10 and 30% of the inoculated test area)
2 | O=S1(=O)CCON=C1c1ccc(Br)s1 [Compound 38] | 0.6 | 2.0 | 0.4 | 2.8 | 2.5 | 4.5 | 2.5 | 4.0 | 2 (Growth covering between 1 and 10% of the inoculated test area) | 0 | 1 (Trace of growth of up to 1% coverage of the test inoculated area) | 0 | 2 (Growth covering between 1 and 10% of the inoculated test area) | 0 | 3 (Growth covering between 10 and 30% of the inoculated test area) | 3 (Growth covering between 10 and 30% of the inoculated test area) | 4 (Growth covering between 30 and 70% of the inoculated test area) | 4 (Growth covering between 30 and 70% of the inoculated test area) | 3 (Growth covering between 10 and 30% of the inoculated test area) | 0 | Surface score of wooden sticks treated with paint formulation, S. chartarum ([3]; 0.15% a.i. in paint): 5 (Growth covering more than 70t of the inoculated test area); Surface score of wooden sticks treated with paint formulation, S. chartarum ([3]; 0.3% a.i. in paint): 2 (Growth covering between 1 and 10% of the inoculated test area); Surface score of wooden sticks treated with paint formulation, U. atrum ([3]; 0.15% a.i. in paint): 4 (Growth covering between 30 and 70% of the inoculated test area); Surface score of wooden sticks treated with paint formulation, U. atrum ([3]; 0.3% a.i. in paint): 3 (Growth covering between 10 and 30% of the inoculated test area)
